Experimental data reported in US8178506B2, “Oligomeric compounds and compositions for use in modulation of small non-coding RNAs” (Regulus Therapeutics Inc., priority 2003, dated 2012).
In the oligonucleotide strings, read from the 5' end, every base follows the letter of its sugar. An asterisk marks phosphorothioate; unmarked linkages are phosphodiester. Other units and linkages are bracketed, terminal groups are in braces. A string of capitals states the bases alone. e = 2'-O-(2-methoxyethyl) (MOE); [5mC] = 5-methylcytosine; d = 2'-deoxy (DNA)

Key:
[1] = tested on: mir-21 miRNA; assay: pGL3-mir-21 sensor luciferase assay in HeLa cells; type: cell-based, human; settings: Table 50, pGL3-mir-21 sensor-expressing HeLa cells, normalized to pRL-CMV
Description: In order to assess the ability of miRNAs to bind predicted miRNA binding sites and regulate the expression of the luciferase reporter, in some embodiments, expression systems based on the pGL3-Control (Promega Corp., Madison Wis.) reporter vector and comprising either a mir-15a, mir-21, or a mir-23b miRNA binding site were developed and used in transient transfections of HeLa cells to determine whether the endogenous mir-15a, mir-21, or mir-23b miRNAs, respectively, could repress luciferase reporter gene expression.
The pGL3-mir-21 sensor plasmid was created by cloning the sequence ([…]; SEQ ID NO: 335), representing a sequence complementary to the mir-21 miRNA, into the Xba site of the pGL3-Control plasmid, placing the potential miRNA-binding site in the 3′UTR of the luciferase reporter. This reporter plasmid was used to transfect HeLa cells and it was observed that the endogenous mir-21 miRNA was able to inhibit luciferase expression from the pGL3-mir-21 sensor plasmid. Thus, to further evaluate the ability of the mir-21 miRNA to bind this target site encoded by the pGL3-mir-21 sensor plasmid, and to assess the ability of oligomeric compounds to interfere with mir-21-mediated silencing, pGL3-mir-21 sensor-expressing HeLa cells were treated with varying concentrations (10 nM or 50 nM) of the following oligomeric compounds: ISIS Number 327917 (SEQ ID NO: 335), a phosphorothioate uniform 2′-MOE oligomeric compound; ISIS Number 338697 ([…]; herein incorporated as SEQ ID NO: 524), a uniform 2′-MOE oligomeric compound targeting the mir-21 pri-miRNA molecule; and ISIS Number 328415 (SEQ ID NO: 524), a 2′-MOE 5-10-5 gapmer oligomeric compound targeting the mir-21 pri-miRNA. The uniform 2′-MOE phosphorothioate oligomeric compound ISIS Number 327901 (SEQ ID NO: 319) targeting an unrelated miRNA (mir-143) was used as a negative control. The data are the average of three trials and are presented in Table 44 as percent untreated control (luciferase plasmid only, not treated with oligomeric compound) luciferase expression, normalized to pRL-CMV levels.
In one embodiment, the oligomeric compounds ISIS Number 327917 (SEQ ID NO: 335), the phosphorothioate uniform 2′-MOE targeting mature mir-21; ISIS Number 358768 (SEQ ID NO: 918), the uniform 2′-MOE targeting the mir-21 pri-miRNA which stimulated the largest increase in pri-miRNA expression levels by real time quantitative RT-PCR; and ISIS Number 345382 (SEQ ID NO: 335), the 5-10-7 phosphorothioate 2′-MOE gapmer targeting mature mir-21 were selected for dose response studies in HeLa cells using the luciferase reporter system described in Example 27. ISIS Number 342683 (SEQ ID NO: 790), representing the scrambled nucleotide sequence of an unrelated PTP1B antisense oligonucleotide, was used as a negative control. HeLa cells expressing the pGL3-mir-21 sensor plasmid (described in Example 27) were treated with 1.9, 5.5, 16.7, and 50 nM of these oligomeric compounds, to assess the ability of oligomeric compounds to interfere with endogenous mir-21-mediated silencing of the pGL3-mir-21 sensor plasmid. The data are presented in Table 50 as percent untreated control (luciferase plasmid only, not treated with oligomeric compound) luciferase expression, normalized to pRL-CMV levels.

[2] = tested on: mir-21 pri-miRNA; assay: mir-21 pri-miRNA expression in HeLa cells (real-time RT-PCR); type: cell-based, human; settings: HeLa cells, 100 nM, real-time RT-PCR
Procedure: In one embodiment, the expression of mir-21 (noted to be expressed at high levels in HeLa cells) was assessed in cells treated with oligomeric compounds. Using the transfection methods previously described, HeLa cells were treated with 100 nM of the uniform 2′-MOE oligomeric compound ISIS Number 327917 (SEQ ID NO: 335) targeting the mir-21 mature miRNA. Total RNA was isolated by lysing cells in 1 mL TRIZOL™ (Invitrogen) using the manufacturer's recommended protocols. […] Real-time RT-PCR analysis was also performed on HeLa cells treated with ISIS 327917 using a primer/probe set specific for the mir-21 pri-miRNA molecule [forward primer=ISIS 339332 ([…]; herein incorporated as SEQ ID NO.: 911), reverse primer-ISIS 339333 (TCGACTGGTGTTGCCATGA; herein incorporated as SEQ ID NO.: 912), and probe=ISIS 339334 ([…]; herein incorporated as SEQ ID NO.: 913)]. Total RNA was quantified using RiboGreen™ RNA quantification reagent (Molecular Probes, Inc. Eugene, Oreg.), expression levels observed for the target were normalized to 5.8S rRNA, and values were expressed relative to an untreated control (UTC).
Using the real-time RT-PCR methods, the expression levels of the mir-21 pri-miRNA were compared in HeLa cells treated with this nested series of uniform 2′-MOE oligomeric compounds, targeting and spanning the entire length of the mir-21 pri-miRNA. ISIS Number 358768 (SEQ ID NO: 918) targets a region flanking the predicted 5′ Drosha cleavage site in the mir-21 pri-miRNA. ISIS Number 358777 (SEQ ID NO: 927) targets a region spanning the 3′ Drosha cleavage site in the mir-21 pri-miRNA. ISIS 358779 (SEQ ID NO: 929) targets a region flanking the predicted 3′ Drosha cleavage site in the mir-21 pri-miRNA. Additionally, oligomeric compounds ISIS 327917 (SEQ ID NO: 335), a uniform 2′-MOE compound targeting the mature mir-21 miRNA, and ISIS 345382 ([…]; SEQ ID NO: 335), a 5-10-7 phosphorothioate 2′-MOE gapmer targeting mir-21, were tested for comparison. Oligomeric compound ISIS 327863 ([…]; herein incorporated as SEQ ID NO: 936), a phosphorothioate 5-10-52′-MOE gapmer, was used as scrambled control. […] Total RNA was isolated by lysing cells in 1 mL TRIZOL™ (Invitrogen) using the manufacturer's recommended protocols. real-time RT-PCR analysis was performed using the primer/probe set specific for the mir-21 pri-miRNA molecule [forward primer=ISIS 339332 (SEQ ID NO.: 911), reverse primer-ISIS 339333 (SEQ ID NO.: 912), and probe=ISIS 339334 (SEQ ID NO.: 913)]. Total RNA was quantified using RiboGreen™ RNA quantification reagent (Molecular Probes, Inc. Eugene, Oreg.), expression levels observed for each target were normalized to 5.8S rRNA, and values were expressed relative to the untreated control (UTC). Effects on expression of the mir-21 pri-miRNA molecule resulting from treatment of HeLa cells with these uniform 2′-MOE oligomeric compounds is expressed as a percentage of RNA levels in untreated control cells.

[3] = tested on: IL-12 mRNA; assay: IL-12 mRNA in LPS-activated primary murine macrophages; type: cell-based, mouse; settings: LPS, average of 3 treatments
[4] = tested on: IL-6 mRNA; assay: IL-6 mRNA in LPS-activated primary murine macrophages; type: cell-based, mouse; settings: average of 3 treatments
Procedure: To investigate the role of miRNAs in the immune response, oligomeric compounds of the present invention targeting miRNAs were tested for their effects upon lipopolysaccharide (LPS)-activated primary murine macrophages. Macrophages participate in the immune response, for example, in the recognition and phagocytosis of microorganisms, including bacteria. Interferon-gamma (IFN-gamma) released by helper T cells is one type of signal required for macrophage activation, and LPS can serve as an additional stimulus. LPS is a component of the gram-negative bacterial cell wall and acts as an agonist for toll-like receptor 4 (TLR4), the primary LPS receptor expressed by macrophages. The proinflammatory cytokines interleukin-12 (IL-12) and interleukin-6 (IL-6) are induced by LPS treatment of macrophages, thus the expression of the mRNAs encoding these cytokines was used to evaluate the response of macrophages to LPS following treatment with oligomeric compounds targeting miRNAs.
Macrophages were isolated as follows. Female C57B1/6 mice (Charles River Laboratories, Wilmington, Mass.) were injected intraperitoneally with 1 ml 3% thioglycollate broth (Sigma-Aldrich, St. Louis, Mo.), and peritoneal macrophage cells were isolated by peritoneal lavage 4 days later. The cells were plated in 96-well plates at 40,000 cells/well for one hour in serum-free RPMI adjusted to contain 10 mM HEPES (Invitrogen Life Technologies, Carlsbad, Calif.), allowed to adhere, then non-adherent cells were washed away and the media was replaced with RPMI containing 10 mM HEPES, 10% FBS and penicillin/streptomycin (“complete” RPMI; Invitrogen Life Technologies, Carlsbad, Calif.).
Oligomeric compounds were introduced into the cells using the non-liposomal transfection reagent FuGENE 6 Transfection Reagent (Roche Diagnostics Corp., Indianapolis, Ind.). Oligomeric compound was mixed with FuGENE 6 in 1 mL of serum-free RPMI to achieve a concentration of 10 μL FuGENE per 1000 nM oligomeric compound. The oligomeric compound/FuGENE complex was allowed to form at room temperature for 20 minutes. This mixture was diluted to the desired concentration of oligomeric compound by the addition of the appropriate volume of complete RPMI. The final ratio of FuGENE 6 to oligomeric compound was 1 μL of FuGENE 6 per 100 nM oligomeric compound. A volume of 100 μL of oligomeric compound/FuGENE/RPMI was added to each well of the 96-well plate in which the macrophages were cultured. Each oligomeric compound treatment was repeated in triplicate.
Following oligomeric compound treatment, cells were stimultated with LPS. Cells were cultured in the presence of the transfection complex for approximately 24 to 28 hours at 37° C. and 5% CO2, after which the medium containing the transfection complex was removed from the cells, and complete RPMI containing 100 ng/mL LPS (Sigma-Aldrich Corp., St. Louis, Mo.) was added to the cells for a period of approximately 24 hours. Control samples included (1) cells receiving no oligomeric compound, stimulated with LPS and (2) cells receiving neither oligomeric compound nor LPS treatment.
In another embodiment, following oligomeric compound treatment, cells were first activated by IFN-gamma, to amplify the response to LPS. Cells were cultured in the presence of the transfection complex for approximately 24 hours at 37° C. and 5% CO2, at which point the medium containing the transfection complex was removed from the cells, and complete RPMI containing 100 ng/mL recombinant mouse IFN-gamma (R&D Systems, Minneapolis, Minn.) was added to the cells. After the 4 hour treatment with INF-gamma, cells were treated with 100 ng/mL LPS for approximately 24 hours. Control samples included (1) cells receiving no oligomeric compound, stimulated with LPS and (2) cells receiving neither oligomeric compound nor LPS treatment. […]

345382 (TCAACATCAGTCTGATAAGCTA; sugars from the 5' end e5 d10 e7, all phosphorothioate, methylation of C not given here) [compound 345382]
luciferase expression % UTC ([1]; 1.9 nM): 101 % UTC
luciferase expression % UTC ([1]; 5.5 nM): 135 % UTC
luciferase expression % UTC ([1]; 16.7 nM): 117 % UTC
luciferase expression % UTC ([1]; 50 nM): 95 % UTC
mir-21 pri-miRNA expression % UTC [2]: 119 % UTC

342683 (antisense CCTTCCCTGAAGGTTCCTCCTT; scrambled control, further chemistry not given here) [compound 342683]
luciferase expression % UTC ([1]; 1.9 nM): 127 % UTC
luciferase expression % UTC ([1]; 5.5 nM): 171 % UTC
luciferase expression % UTC ([1]; 16.7 nM): 104 % UTC
luciferase expression % UTC ([1]; 50 nM): 108 % UTC
IL-12 mRNA expression, % UTC ([3]; 75 nM, +IFN): 92 % UTC
IL-12 mRNA expression, % UTC ([3]; 75 nM, −IFN): 121 % UTC
IL-12 mRNA expression, % UTC ([3]; 150 nM, +IFN): 76 % UTC
IL-12 mRNA expression, % UTC ([3]; 150 nM, −IFN): 165 % UTC
IL-12 mRNA expression, % UTC ([3]; 300 nM, +IFN): 65 % UTC
IL-12 mRNA expression, % UTC ([3]; 300 nM, −IFN): 147 % UTC
IL-12 mRNA expression, % UTC ([3]; 600 nM, +IFN): 64 % UTC
IL-12 mRNA expression, % UTC ([3]; 600 nM, −IFN): 130 % UTC
IL-6 mRNA expression, % UTC ([4]; 75 nM, +IFN): 115 % UTC
IL-6 mRNA expression, % UTC ([4]; 75 nM, −IFN): 135 % UTC
IL-6 mRNA expression, % UTC ([4]; 150 nM, +IFN): 86 % UTC
IL-6 mRNA expression, % UTC ([4]; 150 nM, −IFN): 161 % UTC
IL-6 mRNA expression, % UTC ([4]; 300 nM, +IFN): 110 % UTC
IL-6 mRNA expression, % UTC ([4]; 300 nM, −IFN): 156 % UTC
IL-6 mRNA expression, % UTC ([4]; 600 nM, +IFN): 149 % UTC
IL-6 mRNA expression, % UTC ([4]; 600 nM, −IFN): 311 % UTC

358768 (eA*eG*eG*eT*eG*eG*eT*eA*e[5mC]*eA*eG*e[5mC]*e[5mC]*eA*eT*eG*eG*eA*eG*eA) [compound 358768]
luciferase expression % UTC ([1]; 1.9 nM): 103 % UTC
luciferase expression % UTC ([1]; 5.5 nM): 163 % UTC
luciferase expression % UTC ([1]; 16.7 nM): 146 % UTC
luciferase expression % UTC ([1]; 50 nM): 118 % UTC
mir-21 pri-miRNA expression % UTC [2]: 987 % UTC
